Measurements from US20230109839A1, “THERAPEUTIC AGENT FOR TAUOPATHIES” (SUMITOMO PHARMA CO., LTD., priority 2020, published 2023).
Entries after “also recorded” stand apart in the source; their conditions may differ.

Assays:
[1] = tested on: intracerebral tau aggregate accumulation; assay: Intracerebral tau aggregate accumulation in rTg4510 mice, tau PET with [18F] PM-PBB3, SUVR (Test 5); type: in vivo, mouse
Text: (§1) Test 5: Evaluation of Intracerebral Tau Aggregate Accumulation and Cerebral Atrophy Using rTg4510 Mice
(§2) This test is a test to evaluate the effects of the compounds on intracerebral tau aggregate accumulation and cerebral atrophy. The rTg4510 mice overexpress the human-type FTDP-17 mutant tau in the forebrain, and month-age-dependent intracerebral tau aggregate accumulation and cerebral atrophy are observed. The rTg4510 mice used herein were produced by mating Tg (tauP301L) 4510 mice (Stock No. 015815) and CaMKII-tTA mice (Stock No. 007004) purchased from The Jackson Laboratory and breeding them.
(§3) The test compound was administered as a mixed diet to rTg4510 mice from the age of 4 months, and PET scan and MRI were performed at the ages of 4, 6 and 8 months to quantitatively evaluate the amount of the intracerebral tau aggregate accumulated and cerebral atrophy. The PET scan was performed using MicroPET Focus 220 of Siemens Medical Solutions (0.851 mm thick (intercenter) 95 slices, 19.0 cm axial field of view (FOV), and 7.6 cm intra-section FOV). The administration of radioactive compound [^18F] PM-PBB3 (precursor obtained from Aprinoia) and the PET scan were performed in dimly lit after the mice was treated with 1.5% isoflurane anesthesia to avoid […] of the radioactive compound. The emission scan was performed for 60 minutes immediately after the intravenous administration of [^18F] PM-PBB3 (1 mCi) (3D list mode, energy window: 350-750 keV). Then, the list mode data sorted into 3D synograms were converted into 2D synograms by Fourier-rebinding (frames: 4×1, 8×2 and 8×5 minutes). The dynamic image for 60 minutes after the administration of [^18F] PM-PBB3 was reconstructed by a filter-corrected back projection with a 0.5 mm Hanning filter. Regions of interest (ROI) were set in multiple brain regions using PMOD image analysis software (PMOD Technology) with reference to the MRI templates and the PET reconstructed images. Tau aggregate accumulation was evaluated by calculating SUVR (Standardized uptake value ratio) with the cerebellum as a reference region, based on the added average of dynamic images from 40 minutes to 60 minutes.

rTg4510 mice = assay: Cerebral atrophy in rTg4510 mice, MRI volume of brain regions (Test 5); type: in vivo, mouse; details: for volume cerebellum / volume cerebral neocortex / volume hippocampus / volume lateral ventricle: 5.8 mg/g-food from the age of 4 months; for age-dependent increase in lateral ventricular volume vs non-administration group: mixed diet 3 mg/g-food with ABT 1 mg/g-food
Text: as §1, §2, §3
The evaluation of cerebral atrophy was performed with horizontal superconducting magnet type MRI (7T, inner diameter 400 mm, self-shielding type, zero boil-off type). The imaging was performed under isoflurane anesthesia while maintaining the rectal temperature at 36.5±0.5° C. After Tripilot acquisition, the brain images were acquired by TurboRARE T2 emphasis sequence (TR: 4200 ms, TE: 36 ms, Fat-Sup: on, NA: 4, RARE factor: 8, scan time: 14 min) (FOV read: 25.6 mm, FOV P1: 14.5 mm, Slice thickness: 0.5 mm, number of slices: 28). The ROI of each brain region was set in each of the acquired slices, and the volume of the brain region was calculated by summing the ROI areas of all the slices to evaluate the effect of the test compound.

APP-Tg mouse = assay: Evaluation of the cognitive function by novel object recognition test (NORT) in APP-Tg mice (Test 3); type: in vivo; design: key to Discrimination index: (novel − known search time)/(novel + known search time); details: for improvement of cognitive function (NORT), summary of the above results / improvement of cognitive function (NORT): APP-Tg mice; for improvement of cognitive function (NORT), summary of the above results: alone, with Elacridar or with ABT depending on the compound
Protocol: Test 3: Evaluation of the Cognitive Function by Novel Object Recognition Test (Hereinafter, Also Referred to as “NORT”)
The present test is for evaluating the improvement of cognitive function with the test compounds. When an APP-Tg mouse which is an AD (Alzheimer's disease) model mouse is evaluated by NORT, the memory for a familiar object decreases depending on the time interval between the first trial run (training) and the second trial run (test). For example, if the first trial run is done and 3 hours later the second one is done, there is no difference in the searching times between novel object and known object for the APP-Tg mouse, compared with a healthy mouse. Thus, the APP-Tg mouse suffers from significant amnesia.
The APP-Tg mouse used herein was prepared by constructing an expression cassette linked to human APP751 isoform to which Swedish (K670N/M671L) and Indiana (V717F) mutation were introduced at downstream of mouse Thy-1 promoter, then injecting the expression cassette into a mouse fertilized egg, and transplanting it to a host mouse. The prepared mouse presents with intracerebral AB accumulation and cognitive dysfunction from early on, and thus the mouse can be used for the evaluation of cognitive function. APP-Tg mouse has been also reported in Non-patent literature 6.
To the prepared APP-Tg mouse, the test compound was administered, and then the first trial run was done for the mouse 30 minutes after the intraperitoneal administration or after 10 days of mixed diet administration. The second trial run was done 3 hours after the first trial run, and the searching times between novel object and known object in the second trial were evaluated. The discrimination index was calculated from the searching time for novel object and known object in the second trial run, and the improvement of cognitive function of the test compound was confirmed by comparing the discrimination index with the test compound-unadministered group as an index of the cognitive function. The discrimination index was calculated by the following formula.
Discrimination index={(Searching time for novel object)−(Searching time for known object)}/{(Searching time for novel object)+(Searching time for known object)}
The present test can be also done with a combination with Elacridar (Tokyo Chemical Industry Co., Ltd.). Elacridar can inhibit P-gp and BCRP which are excretion transporters expressed in the blood-brain barrier and thereby Elacridar has the effect of improving the transferability of the test compound to the brain. Eracridal was orally administered to APP-Tg mice at 100 mg/kg 2 hours before the first trial run, and then the test compound was intraperitoneally administered to the mice 30 minutes before the first trial run according to the above method. And, the improvement of cognitive function was evaluated. The significant difference from the vehicle-administered group was determined using the parametric Dunnett multiple comparison test.
And, the present test can be also done with a combination with ABT (1-aminobenzotriazole) (Tokyo Chemical Industry Co., Ltd.). ABT has the effect of improving the blood concentration of the test compound by inhibiting CYP and suppressing metabolism. The test compound and ABT (1 mg/g-food) were administered with food to APP-Tg mice for 10 days, and then the improvement of cognitive function was evaluated according to the above method. The significant difference from the vehicle-administered group was determined using the parametric Dunnett multiple comparison test.

[2] = 4 month old, 5.8 mg/g-food from the age of 4 months
[3] = 6 month old, 5.8 mg/g-food from the age of 4 months
[4] = 8 month old, 5.8 mg/g-food from the age of 4 months
[5] = diet 5.8 mg/g-food from the age of 4 months
[6] = diet 5.8 mg/g-food from the age of 4 months, ages 4, 6 and 8 months, vs non-administration group
[7] = 4 month old, 3 mg/g-food, with ABT 1 mg/g-food
[8] = 6 month old, 3 mg/g-food, with ABT 1 mg/g-food
[9] = 8 month old, 3 mg/g-food, with ABT 1 mg/g-food
[10] = mixed diet 0.7 and 6.6 mg/g-food

CC1CCN(c2ccc(=O)n(CC(=O)Nc3ccc(C#N)cc3)n2)CC1 [Example 1, N-(4-Cyanophenyl)-2-[3-(4-methylpiperidin-1-yl)-6-oxopyridazin-1(6H)-yl]acetamide]
SUVR(cerebellum ratio) cerebral neocortex [1, 2]: 0.986 ± 0.009
SUVR(cerebellum ratio) hippocampus [1, 2]: 1.078 ± 0.009
SUVR(cerebellum ratio) cerebral neocortex [1, 3]: 1.098 ± 0.013
SUVR(cerebellum ratio) hippocampus [1, 3]: 1.182 ± 0.016
SUVR(cerebellum ratio) cerebral neocortex [1, 4]: 1.184 ± 0.017
SUVR(cerebellum ratio) hippocampus [1, 4]: 1.284 ± 0.024
age-dependent increase in SUVR in the cerebral neocortex and hippocampus (FIG. 3) [1, 5]: statistically significantly suppressed
increase in tau PET tracer accumulation in each region with aging (SUVR average images, FIG. 1) [1, 6]: significantly suppressed
volume cerebellum (rTg4510 mice; 4 month old): 34.3 ± 0.19 mm^3
volume cerebral neocortex (rTg4510 mice; 4 month old): 60.1 ± 0.49 mm^3
volume hippocampus (rTg4510 mice; 4 month old): 14.0 ± 0.13 mm^3
volume lateral ventricle (rTg4510 mice; 4 month old): 0.79 ± 0.014 mm^3
volume cerebellum (rTg4510 mice; 6 month old): 33.9 ± 0.18 mm^3
volume cerebral neocortex (rTg4510 mice; 6 month old): 50.9 ± 0.98 mm^3
volume hippocampus (rTg4510 mice; 6 month old): 12.6 ± 0.22 mm^3
volume lateral ventricle (rTg4510 mice; 6 month old): 1.70 ± 0.312 mm^3
volume cerebellum (rTg4510 mice; 8 month old): 33.4 ± 0.33 mm^3
volume cerebral neocortex (rTg4510 mice; 8 month old): 45.3 ± 1.13 mm^3
volume hippocampus (rTg4510 mice; 8 month old): 12.7 ± 0.12 mm^3
volume lateral ventricle (rTg4510 mice; 8 month old): 0.61 ± 0.036 mm^3
age-dependent cerebral atrophy in the cerebral neocortex and hippocampus (volume, FIG. 2) (rTg4510 mice; [5]): statistically significantly suppressed
age-dependent increase in the lateral ventricular volume (FIG. 2) (rTg4510 mice; [5]): statistically significantly suppressed
cerebral atrophy and enlargement of the lateral ventricle with aging (T2-weighted images, FIG. 1) (rTg4510 mice; [6]): significantly suppressed
improvement of cognitive function (NORT), summary of the above results (APP-Tg mouse): some improvement of cognitive function
Discrimination index (APP-Tg mouse; APP-Tg mouse, 30 minutes before first trial run): 0.25
Discrimination index (APP-Tg mouse; APP-Tg mouse, dose 3 (mg/g i.p.), 30 minutes before first trial run): 0.12
Discrimination index (APP-Tg mouse; APP-Tg mouse, dose 10 (mg/g i.p.), 30 minutes before first trial run): 0.22
improvement of cognitive function, significant difference from the vehicle-administered group (APP-Tg mouse; APP-Tg mouse, intraperitoneal doses of 10 and 30 mg/kg, parametric Dunnett multiple comparison test): statistically significant
improvement of cognitive function (NORT, discrimination index) (APP-Tg mouse; APP-Tg mouse, intraperitoneally 3, 10 and 30 mg/kg 30 minutes before the first trial run): dose-dependent improvement of cognitive function

CN(c1ncc2cnn(CC(=O)Nc3ccn4ncnc4c3)c2n1)C1CCCC1 [Example 795, 2-{6-[cyclopentyl(methyl)amino]-1H-pyrazolo[3,4-d]pyrimidin-1-yl}-N-([1,2,4]triazolo[1,5-a]pyridin-7-yl)acetamide]
SUVR(cerebellum ratio) cerebral neocortex [1, 7]: 1.023 ± 0.009
SUVR(cerebellum ratio) hippocampus [1, 7]: 1.134 ± 0.042
SUVR(cerebellum ratio) cerebral neocortex [1, 8]: 1.149 ± 0.031
SUVR(cerebellum ratio) hippocampus [1, 8]: 1.308 ± 0.044
SUVR(cerebellum ratio) cerebral neocortex [1, 9]: 1.268 ± 0.036
SUVR(cerebellum ratio) hippocampus [1, 9]: 1.419 ± 0.048
age-dependent increase in SUVR in the cerebral neocortex and hippocampus (FIG. 5) ([1]; mixed diet 3 mg/g-food with ABT 1 mg/g-food): tended to be suppressed
increase in PET tracer accumulation in each brain region with aging (average SUVR images, FIG. 4) ([1]; mixed diet 3 mg/g-food with ABT 1 mg/g-food, ages 4, 6 and 8 months): suppressed
age-dependent increase in lateral ventricular volume vs non-administration group (rTg4510 mice; at the age of 6 months): tendency to suppress
age-dependent increase in lateral ventricular volume vs non-administration group (rTg4510 mice; at the age of 8 months): not different
improvement of cognitive function (NORT), summary of the above results (APP-Tg mouse): some improvement of cognitive function
improvement of cognitive function (NORT) (APP-Tg mouse; test compound and ABT (1 mg/g-food) administered with food for 10 days): some improvement of cognitive function
Discrimination index (APP-Tg mouse; APP-Tg mouse, dose 0.2 mg/g-food for 10 days, with ABT 1 mg/g-food): 0.30
Discrimination index (APP-Tg mouse; APP-Tg mouse, dose 2 mg/g-food for 10 days, with ABT 1 mg/g-food): 0.27

CC1CC=C(c2cnc3cnn(CC(=O)Nc4ccn5ncnc5c4)c3n2)CC1 (stereo not drawn) [Example 577, 2-[6-(4-methylcyclohex-1-en-1-yl)-1H-pyrazolo[3,4-b]pyrazin-1-yl]-N-([1,2,4]triazolo[1,5-a]pyridin-7-yl)acetamide]
individuals that did not show any increase in the SUVR from the age of 6 months to the age of 8 months ([1]; mixed diet 0.7 mg/g-hood administration group): 3 out of 5
individuals that did not show any increase in the SUVR from the age of 6 months to the age of 8 months ([1]; mixed diet 6.6 mg/g-hood administration group): 3 out of 6
accumulation of tau aggregates (suggested from SUVR) [1, 10]: suppressed
suppression of cerebral atrophy (rTg4510 mice; [10]): no suppression
improvement of cognitive function (NORT) (APP-Tg mouse; Elacridar orally 100 mg/kg 2 hours before, test compound intraperitoneally 30 minutes before the first trial run, 100 mg/kg): some improvement of cognitive function; also recorded: strong improvement of cognitive function
improvement of cognitive function (NORT), summary of the above results (APP-Tg mouse): some improvement of cognitive function
Discrimination index (APP-Tg mouse; APP-Tg mouse, dose 10 (mg/g i.p.), with Elacridar 100 mg/kg orally 2 hours before first trial run): 0.13
Discrimination index (APP-Tg mouse; APP-Tg mouse, with Elacridar 100 mg/kg orally 2 hours before first trial run): 0.21
